Test results as given in patent US10987317B2, “Inhibition of glutaminase C” (Cornell University, priority 2009, dated 2021).
Entries after “also recorded” stand apart in the source; their conditions may differ.

Key:
Assay type in all cases: cell-based
[1] = test system: NIH 3T3 cells expressing H-Ras(G12V); experiment: H-Ras(G12V)-induced transformation (focus formation, growth in low serum); settings: focus formation in NIH 3T3 cells or growth in low serum
Text: FIGS. 5A-C illustrate comparative abilities of 968 and other benzo[a]phenanthrldinones to inhibit the transforming activity of oncogenic Dbl and H-Ras. […] Histograms show the relative levels of Dbl-induced focus formation for the different treatments, compared to Dbl-induced focus formation measured in the presence of DMSO (i.e. solvent control). Data represent the average of 3 experiments (mean±s.d.). […] Histograms show the relative levels of Ras(G12V)-induced focus formation measured for the different treatments, compared to Ras(G12V)-induced focus formation measured in the presence of DMSO (solvent control). Data represent the average of 3 experiments (mean±s.d.). FIG. 5C NIH 3T3 cells stably expressing H-Ras(G12V) that are cultured in DMEM supplemented with 1% calf serum, with the indicated amounts of 968. After 6 days, cells are trypsinized and counted. 100% represents the number of cells counted in the absence of 968, i.e. 26×10^4 cells. Data represent the average of 3 experiments (mean±s.d.).

normal NIH 3T3 cells = experiment: Growth and morphology of control cells; settings: 10% calf serum; 5-10 μM
Procedure: FIGS. 1A-E illustrate that the small molecule 968 inhibiting cellular transformation. […] Cells were fixed and stained with crystal violet for counting of foci. Right: 968 was serially diluted (10, 5, 2.5, and 1.25 μM) and evaluated for its ability to inhibit focus formation. […] After 6 days, the cells are counted. 100% represents the number of Dbl-transformed cells counted in the absence of 968 (27.5×10^4 cells). Data represent the average of 3 experiments (±s.d.). […] At the indicated times, the cells are counted. Data represent the average of 3 experiments (±s.d.).

[2] = test system: NIH 3T3 cells stably expressing Cdc42(F28L) and transiently expressing GAC; experiment: Focus formation by Cdc42(F28L) plus GAC
Text: FIGS. 4A-E illustrate the role of glutaminase C activity in cellular transformation. […] Data represent the average of 3 experiments (±s.d.). […] Data represent the average of 3 experiments (±s.d.). […] 100% represents the activity measured in untreated Dbl-transformed cells. The data represent the average of 2 experiments. […] 100% represents the activity measured in untreated SKBR3 cells. The data represent the average of 2 experiments. […] Data represent the average of 3 experiments (±s.d.).

[3] = molecular target: T1, V5-tagged GAC in NIH 3T3 cells stably expressing Dbl (Mus musculus, UniProt D3Z7P3); experiment: GAC phosphorylation by 2-D gel and Western blotting; settings: 10 μM for 48 hours
T1 construct: expressed in transfected cells; host or cells: NIH 3T3 cells stably expressing oncogenic Dbl
T1 sequence (D3Z7P3 55-603 isoform D3Z7P3-2 limits assumed): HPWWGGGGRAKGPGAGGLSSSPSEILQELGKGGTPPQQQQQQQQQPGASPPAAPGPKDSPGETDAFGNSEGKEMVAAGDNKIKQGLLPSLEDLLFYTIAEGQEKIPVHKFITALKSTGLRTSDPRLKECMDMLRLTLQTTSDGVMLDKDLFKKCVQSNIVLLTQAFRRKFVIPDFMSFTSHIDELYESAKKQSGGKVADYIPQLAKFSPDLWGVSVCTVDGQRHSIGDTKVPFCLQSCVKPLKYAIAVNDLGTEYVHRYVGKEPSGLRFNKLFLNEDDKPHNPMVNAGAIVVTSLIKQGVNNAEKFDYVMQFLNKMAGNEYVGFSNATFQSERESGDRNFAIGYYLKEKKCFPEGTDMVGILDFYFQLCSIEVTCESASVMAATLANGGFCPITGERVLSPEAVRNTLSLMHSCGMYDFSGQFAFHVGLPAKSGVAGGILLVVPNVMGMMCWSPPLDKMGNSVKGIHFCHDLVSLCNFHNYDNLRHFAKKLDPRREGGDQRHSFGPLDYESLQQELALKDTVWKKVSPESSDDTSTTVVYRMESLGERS
Procedure: NIH 3T3 cells stably expressing the Dbl oncogene, were transiently transfected with DNA encoding a VS-tagged GAC, and then one sample was treated with 968 (10 μM) for 48 hours. The cells were then harvested and the ectopically expressed GAC was isolated by immunoprecipitation via the V5 tag. The samples were then subjected to 2-D gel analysis to separate the V5-GAC by charge and size, and the V5-tagged GAC was visualized by Western blotting using an anti-V5 antibody. […] Since 968 inhibits the enzymatic activity of GAC, and the phosphorylation appears to be required for its basal enzyme activity, it appears that 968 might be functioning to inhibit glutaminase C by inhibiting the ability of at least one site on glutaminase C to become phosphorylated.

Structure (SMILES): CN(C)c1ccc(C2Nc3ccc4ccccc4c3C3=C2C(=O)CC(C)(C)C3)cc1Br (stereo not shown) [Compound 968, 5-[3-bromo-4-(dimethylamino)phenyl]-2,2-dimethyl-2,3,5,6-tetrahydrobenzo[a]]
- potency on Dbl-induced transformation compared to oncogenic H-Ras [1]: more potent inhibitor of Dbl-induced transformation
- effect on growth or morphology of normal NIH 3T3 cells (normal NIH 3T3 cells): no significant effects; also recorded: inability
- focus-forming activity [2]: blocked
- phosphorylation state of GAC [3]: significant reduction of at least one phosphorylation state
